Here are results for eight compounds from patent US20050009889A1 (priority 2002, published 2005).

Common to all, as to assay type: in vivo
The test system of one test is Pyricularia oryzae. The following applies: rice seedlings sprayed to run-off, inoculated next day; concentration not given.
The test system of another test is Puccinia recondita. Put plainly: Test B: preventive control of wheat leaf rust on wheat seedlings. The following applies: wheat seedlings sprayed to run-off, inoculated next day; concentration not given. From the text:
(§1) General protocol for preparing test suspensions: Test compounds are first dissolved in acetone in an amount equal to 3% of the final volume and then suspended at the desired concentration (in ppm) in acetone and purified water (50/50 mix) containing 250 ppm of the surfactant Trem® 014 (polyhydric alcohol esters). The resulting test suspensions are then used in the following tests. Spraying a 200 ppm test suspension to the point of run-off on the test plants is the equivalent of a rate of 500 g/ha.
The test suspension was sprayed to the point of run-off on wheat seedlings. The following day the seedlings were inoculated with a spore suspension of Puccinia recondita (the causal agent of wheat leaf rust) and incubated in a saturated atmosphere at 20° C. for 24 h, and then moved to a growth chamber at 20° C. for 6 days, after which disease ratings were made.

Test [1] deals with Erysiphe graminis f. sp. tritici. Put plainly: Test A: preventive control of wheat powdery mildew on wheat seedlings. The following applies: wheat seedlings sprayed to run-off, inoculated next day, rated after 7 days; concentration not given.
Source text: as §1
The test suspension was sprayed to the point of run-off on wheat seedlings. The following day the seedlings were inoculated with a spore dust of Erysiphe graminis f. sp. tritici, (the causal agent of wheat powdery mildew) and incubated in a growth chamber at 20° C. for 7 days, after which disease ratings were made.

The subject of test [2] is Plasmopara viticola. Put plainly: Test G: curative control of grape downy mildew on grape seedlings. Particulars: grape seedlings inoculated, sprayed next day (curative); concentration not given.
Source text: as §1
Grape seedlings are inoculated with a spore suspension of Plasmopara viticola (the casual agent of grape downy mildew) and incubated in a saturated atmosphere at 20° C. for 24 h. The next day, test suspension is sprayed to the point of run-off and the treated plants are moved to a growth chamber at 20° C. for 6 days, and then incubated in a saturated atmosphere at 20° C. for 24 h, after which disease ratings are made.

Test [3] deals with Plasmopara viticola. Put plainly: Test E: preventive control of grape downy mildew on grape seedlings. Particulars: grape seedlings sprayed to run-off, inoculated next day; concentration not given.
Source text: as §1
The test suspension was sprayed to the point of run-off on grape seedlings. The following day the seedlings were inoculated with a spore suspension of Plasmopara viticola (the causal agent of grape downy mildew) and incubated in a saturated atmosphere at 20° C. for 24 h, moved to a growth chamber at 20° C. for 6 days, and then incubated in a saturated atmosphere at 20° C. for 24 h, after which disease ratings were made.

The next test relates to Phytophthora infestans. Particulars: tomato seedlings sprayed to run-off, inoculated next day; concentration not given.

The structures appear in SMILES notation.

For the compound `Nc1ncccc1C(=O)NCc1ncc(C(F)(F)F)cc1Cl` [Compound 6], the “Test C disease control rating (100 = 100% disease control, 0 = no control)” value with Pyricularia oryzae was 0%. The “Test B disease control rating (100 = 100% disease control, 0 = no control)” value with Puccinia recondita was determined as 28%. In addition, the “Test A disease control rating (100 = 100% disease control, 0 = no control)” value in test [1] was determined as 0%. Also, in the test on Plasmopara viticola [2], the “Test G disease control rating (100 = 100% disease control, 0 = no control)” value was 8%. The “Test E disease control rating (100 = 100% disease control, 0 = no control)” value in the test on Plasmopara viticola [3] worked out at 0%. Besides, in the test on Phytophthora infestans, the “Test D disease control rating (100 = 100% disease control, 0 = no control)” value stood at 7%.

For the compound `O=C(NCc1ncc(C(F)(F)F)cc1Cl)c1cncc(Br)c1` [Compound 7], in the test on Pyricularia oryzae, the “Test C disease control rating (100 = 100% disease control, 0 = no control)” value is listed as 74%. Moreover, the “Test B disease control rating (100 = 100% disease control, 0 = no control)” value with Puccinia recondita turned out to be 9%. In test [1], the “Test A disease control rating (100 = 100% disease control, 0 = no control)” value is 0%. Further, the “Test G disease control rating (100 = 100% disease control, 0 = no control)” value in the test with Plasmopara viticola [2] amounted to 0%. The “Test E disease control rating (100 = 100% disease control, 0 = no control)” value with Plasmopara viticola [3] was 0%. Besides, the “Test D disease control rating (100 = 100% disease control, 0 = no control)” value in the test on Phytophthora infestans is given as 16%.

Turning to `O=C(NCc1ncc(C(F)(F)F)cc1Cl)c1cccnc1O` [Compound 8], the “Test C disease control rating (100 = 100% disease control, 0 = no control)” value with Pyricularia oryzae is 0%. Moreover, the “Test B disease control rating (100 = 100% disease control, 0 = no control)” value in the test on Puccinia recondita came out at 9%. For the same compound, the “Test A disease control rating (100 = 100% disease control, 0 = no control)” value in test [1] was 0%. In the test on Plasmopara viticola [2], the “Test G disease control rating (100 = 100% disease control, 0 = no control)” value is on record as 8%. Moreover, in the test on Plasmopara viticola [3], the “Test E disease control rating (100 = 100% disease control, 0 = no control)” value is 8%. In addition, the “Test D disease control rating (100 = 100% disease control, 0 = no control)” value with Phytophthora infestans is given as 7%.

`COc1ncccc1C(=O)NCc1ncc(C(F)(F)F)cc1Cl` [Compound 9]: in the test on Pyricularia oryzae, the “Test C disease control rating (100 = 100% disease control, 0 = no control)” value came out at 0%. The “Test B disease control rating (100 = 100% disease control, 0 = no control)” value in the test with Puccinia recondita worked out at 19%. Moreover, the “Test A disease control rating (100 = 100% disease control, 0 = no control)” value in test [1] was 0%. Besides, the “Test G disease control rating (100 = 100% disease control, 0 = no control)” value in the test with Plasmopara viticola [2] was found to be 24%. In the test with Plasmopara viticola [3], the “Test E disease control rating (100 = 100% disease control, 0 = no control)” value turned out to be 24%. Further, in the test with Phytophthora infestans, the “Test D disease control rating (100 = 100% disease control, 0 = no control)” value came out at 7%.

Consider `CCOc1ncccc1C(=O)NCc1ncc(C(F)(F)F)cc1Cl` [Compound 10], for which the “Test C disease control rating (100 = 100% disease control, 0 = no control)” value with Pyricularia oryzae amounted to 0%. In the test on Puccinia recondita, the “Test B disease control rating (100 = 100% disease control, 0 = no control)” value is 9%. Moreover, the “Test A disease control rating (100 = 100% disease control, 0 = no control)” value in test [1] turned out to be 0%. Also, the “Test G disease control rating (100 = 100% disease control, 0 = no control)” value with Plasmopara viticola [2] is given as 23%. In addition, the “Test E disease control rating (100 = 100% disease control, 0 = no control)” value in the test on Plasmopara viticola [3] turned out to be 23%. The “Test D disease control rating (100 = 100% disease control, 0 = no control)” value in the test on Phytophthora infestans is reported as 3%.

As for `O=C(NCc1ncc(C(F)(F)F)cc1Cl)c1ccc(C(F)(F)F)nc1Br` [Compound 12], the “Test C disease control rating (100 = 100% disease control, 0 = no control)” value in the test with Pyricularia oryzae amounted to 80%. Further, the “Test B disease control rating (100 = 100% disease control, 0 = no control)” value in the test on Puccinia recondita turned out to be 9%. Further, in test [1], the “Test A disease control rating (100 = 100% disease control, 0 = no control)” value was 0%. In the test with Plasmopara viticola [2], the “Test G disease control rating (100 = 100% disease control, 0 = no control)” value was found to be 0%. Besides, the “Test E disease control rating (100 = 100% disease control, 0 = no control)” value in the test on Plasmopara viticola [3] was found to be 0%. Further, in the test on Phytophthora infestans, the “Test D disease control rating (100 = 100% disease control, 0 = no control)” value is listed as 32%.

Take `Cc1ccc(C(=O)NCc2ncc(C(F)(F)F)cc2Cl)c(O)n1` [Compound 13]: the “Test C disease control rating (100 = 100% disease control, 0 = no control)” value in the test with Pyricularia oryzae is 0%. In addition, the “Test B disease control rating (100 = 100% disease control, 0 = no control)” value in the test with Puccinia recondita is listed as 9%. Besides, in test [1], the “Test A disease control rating (100 = 100% disease control, 0 = no control)” value amounted to 0%. Also, in the test with Plasmopara viticola [2], the “Test G disease control rating (100 = 100% disease control, 0 = no control)” value is listed as 8%. Further, the “Test E disease control rating (100 = 100% disease control, 0 = no control)” value with Plasmopara viticola [3] is reported as 8%. Moreover, the “Test D disease control rating (100 = 100% disease control, 0 = no control)” value in the test with Phytophthora infestans worked out at 7%.

Take `Cc1nc(C(F)(F)F)ccc1C(=O)NCc1ncc(C(F)(F)F)cc1Cl` [Compound 14]: in the test with Pyricularia oryzae, the “Test C disease control rating (100 = 100% disease control, 0 = no control)” value was 87%. Moreover, in the test with Puccinia recondita, the “Test B disease control rating (100 = 100% disease control, 0 = no control)” value was found to be 28%. Besides, the “Test A disease control rating (100 = 100% disease control, 0 = no control)” value in test [1] is 0%. Besides, in the test on Plasmopara viticola [2], the “Test G disease control rating (100 = 100% disease control, 0 = no control)” value came out at 8%. Further, in the test with Plasmopara viticola [3], the “Test E disease control rating (100 = 100% disease control, 0 = no control)” value amounted to 8%. In addition, in the test on Phytophthora infestans, the “Test D disease control rating (100 = 100% disease control, 0 = no control)” value was 25%.
